Experimental data from US8299023B2, “Neuropeptide-2 receptor (Y-2R) agonists” (Hoffmann-La Roche Inc., priority 2008, dated 2012).

Assays:
hypothalamic slices = hypothalamic slices in vitro; cited from earlier work
Y1R = molecular target: T1, Y1R (Homo sapiens, UniProt P25929); assay: Ca flux assay (FLIPR), Y1R; type: cell-based
T1 sequence (P25929 1-384): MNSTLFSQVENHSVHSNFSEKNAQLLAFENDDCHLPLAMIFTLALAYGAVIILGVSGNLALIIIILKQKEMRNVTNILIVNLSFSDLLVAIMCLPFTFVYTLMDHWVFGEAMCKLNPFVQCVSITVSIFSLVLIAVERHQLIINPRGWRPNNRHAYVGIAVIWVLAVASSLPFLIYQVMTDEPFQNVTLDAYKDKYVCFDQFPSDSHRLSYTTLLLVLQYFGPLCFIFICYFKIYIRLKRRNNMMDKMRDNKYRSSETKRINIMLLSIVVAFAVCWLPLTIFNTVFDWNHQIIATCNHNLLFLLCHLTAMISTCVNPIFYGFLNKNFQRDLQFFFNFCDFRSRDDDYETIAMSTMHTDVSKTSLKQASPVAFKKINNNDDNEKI

Y4R = Y4R (Homo sapiens, UniProt P50391); assay: Ca flux assay (FLIPR), Y4R; type: cell-based
Y5R = molecular target: T2, Y5R (Homo sapiens, UniProt Q15761); assay: Ca flux assay (FLIPR), Y5R; type: cell-based; settings: for Emax: read-out: Y5R FLIPR, percentage in brackets beside the EC50
T2 sequence (Q15761 1-445): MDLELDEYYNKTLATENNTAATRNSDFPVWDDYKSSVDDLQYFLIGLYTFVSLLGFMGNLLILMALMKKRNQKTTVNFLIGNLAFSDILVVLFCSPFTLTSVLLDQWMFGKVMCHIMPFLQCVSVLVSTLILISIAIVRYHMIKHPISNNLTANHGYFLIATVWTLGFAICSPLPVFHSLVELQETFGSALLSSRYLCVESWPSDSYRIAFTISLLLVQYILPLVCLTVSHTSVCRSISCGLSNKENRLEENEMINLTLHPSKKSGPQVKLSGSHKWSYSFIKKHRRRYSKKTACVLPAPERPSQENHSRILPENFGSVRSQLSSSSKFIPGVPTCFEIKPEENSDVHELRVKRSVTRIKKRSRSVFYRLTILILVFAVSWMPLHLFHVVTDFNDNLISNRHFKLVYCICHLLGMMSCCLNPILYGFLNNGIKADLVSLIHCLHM

human NPY2-receptors = molecular target: T3, human NPY2-receptors (Homo sapiens, UniProt P49146); assay: cAMP agonist assay, Y2R; type: cell-based
T3 construct: expressed in transfected cells; host or cells: HEK293 (G418 selection in the medium)
T3 sequence (P49146 1-381): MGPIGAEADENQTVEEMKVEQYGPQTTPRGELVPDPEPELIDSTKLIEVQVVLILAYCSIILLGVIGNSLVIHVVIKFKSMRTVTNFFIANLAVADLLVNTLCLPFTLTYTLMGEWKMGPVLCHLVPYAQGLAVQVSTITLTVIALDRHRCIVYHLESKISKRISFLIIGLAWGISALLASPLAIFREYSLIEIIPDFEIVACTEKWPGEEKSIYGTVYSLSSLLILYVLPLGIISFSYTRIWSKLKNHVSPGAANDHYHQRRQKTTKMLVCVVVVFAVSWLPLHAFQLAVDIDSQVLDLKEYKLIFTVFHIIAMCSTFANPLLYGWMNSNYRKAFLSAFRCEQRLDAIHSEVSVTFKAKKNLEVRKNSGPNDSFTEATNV
Procedure: HEK293 cells expressing human NPY2-receptors were plated in a 384-well plate at a density of 9000 cells/well using a Multi-drop dispenser and the plates were grown overnight at 37° C.
The media and reagents were warmed to room temperature. Before the dilutions were prepared, the stock solution of NPY2-receptor ligands and controls in dimethyl sulphoxide (DMSO, Sigma Cat. #D2650) was allowed to warm up to 32° C. for 5-10 min.
The plating media was removed by gentle inversion of the 384-well plate on a paper towel and was replaced with incubation medium (50 μ/L well) containing various concentrations of NPY2-receptor ligands (four replicates/concentration). The plates were incubated at room temperature for 30 min. Following the 30 min treatment period, the incubation media was discarded and replaced with 50 μL/well of Assay Lysis Buffer (provided in the Tropix kit). The cells were lysed by incubating plates for 45 min @ 37° C. The lysate (20 μl) was transferred into the pre-coated antibody plates (384-well) supplied in the Tropix kit. AP conjugate (10 μL) and of anti-cAMP antibody (20 μL) was added to each well and the plates incubated on a shaker at room temperature for 1 h. The plates were washed 5 times with Wash Buffer (70 μL/well/wash) and the plates tapped dry. […] The signal in each well was measured (1 sec/well) using a Luminometer (VICTOR-V).

Chain of Y4R (P50391 whole entry): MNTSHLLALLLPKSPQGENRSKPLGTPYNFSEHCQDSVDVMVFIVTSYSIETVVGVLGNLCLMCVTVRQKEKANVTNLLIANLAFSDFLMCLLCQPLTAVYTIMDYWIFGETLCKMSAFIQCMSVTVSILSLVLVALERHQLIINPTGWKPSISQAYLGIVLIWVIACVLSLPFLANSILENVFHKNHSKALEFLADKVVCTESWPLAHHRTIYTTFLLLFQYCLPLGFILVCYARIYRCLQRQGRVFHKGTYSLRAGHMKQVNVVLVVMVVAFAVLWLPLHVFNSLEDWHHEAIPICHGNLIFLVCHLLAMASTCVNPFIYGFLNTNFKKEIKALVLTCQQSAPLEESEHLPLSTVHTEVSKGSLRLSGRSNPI

Row | Compound | NPY release (hypothalamic slices) | EC50 (Y1R) | EC50 (Y4R) | EC50 (Y5R) | Emax (Y5R) | EC50 (human NPY2-receptors)
1 | N=C(N)NCCC[C@H](NC(=O)CC1(CC(=O)N2CCN(C3c4ccccc4NC(=O)c4ccccc43)CC2)CCCC1)C(=O)NCCn1c(=O)n(-c2ccccc2)n(-c2ccccc2)c1=O (stereo partly shown) [BIIE0246] | increases NPY release |  |  |  |  | 
2 | CC[C@H](C)[C@H](NC(C)=O)C(=O)N[C@@H](CCCCN)C(=O)NCc1ccc(-c2cccc(CC(=O)N[C@@H](CCCNC(=N)N)C(=O)N[C@@H](Cc3c[nH]cn3)C(=O)N[C@@H](Cc3ccc(O)cc3)C(=O)N[C@@H](CC(C)C)C(=O)N[C@@H](CC(N)=O)C(=O)N[C@@H](Cc3c[nH]c4ccccc34)C(=O)N[C@H](C(=O)N[C@H](C(=O)N[C@@H](CCCNC(=N)N)C(=O)N[C@@H](CCC(N)=O)C(=O)N(C)[C@@H](CCCNC(=N)N)C(=O)N[C@@H](Cc3ccc(O)cc3)C(N)=O)[C@@H](C)O)C(C)C)c2)cc1 [Example 5] |  | > 30 µM | > 30 µM | > 30 µM |  | 
3 | CC[C@H](C)[C@H](NC(C)=O)C(=O)N[C@@H](CCCCN)C(=O)N1CCN(c2ccc3c(ccn3CC(=O)N[C@@H](CCCNC(=N)N)C(=O)N[C@@H](Cc3c[nH]cn3)C(=O)N[C@@H](Cc3ccc(O)cc3)C(=O)N[C@@H](CC(C)C)C(=O)N[C@@H](CC(N)=O)C(=O)N[C@@H](Cc3c[nH]c4ccccc34)C(=O)N[C@H](C(=O)N[C@H](C(=O)N[C@@H](CCCNC(=N)N)C(=O)N[C@@H](CCC(N)=O)C(=O)N(C)[C@@H](CCCNC(=N)N)C(=O)N[C@@H](Cc3ccc(O)cc3)C(N)=O)[C@@H](C)O)C(C)C)c2)CC1 [Example 6] |  | > 30 µM | > 30 µM | 10.7 µM |  | 
4 | CC[C@H](C)[C@H](NC(C)=O)C(=O)N[C@@H](CCCCN)C(=O)N1CCCN(c2ccc3ncn(CC(=O)N[C@@H](CCCNC(=N)N)C(=O)N[C@@H](Cc4c[nH]cn4)C(=O)N[C@@H](Cc4ccc(O)cc4)C(=O)N[C@@H](CC(C)C)C(=O)N[C@@H](CC(N)=O)C(=O)N[C@@H](Cc4c[nH]c5ccccc45)C(=O)N[C@H](C(=O)N[C@H](C(=O)N[C@@H](CCCNC(=N)N)C(=O)N[C@@H](CCC(N)=O)C(=O)N(C)[C@@H](CCCNC(=N)N)C(=O)N[C@@H](Cc4ccc(O)cc4)C(N)=O)[C@@H](C)O)C(C)C)c(=O)c3c2)CC1 [Example 8] |  | > 9 µM | > 9 µM | 6.03 µM |  | 
5 | CC[C@H](C)[C@H](NC(C)=O)C(=O)N[C@@H](CCCCN)C(=O)N1CCN(c2nc3ncn(CC(=O)N[C@@H](CCCNC(=N)N)C(=O)N[C@@H](Cc4c[nH]cn4)C(=O)N[C@@H](Cc4ccc(O)cc4)C(=O)N[C@@H](CC(C)C)C(=O)N[C@@H](CC(N)=O)C(=O)N[C@@H](Cc4c[nH]c5ccccc45)C(=O)N[C@H](C(=O)N[C@H](C(=O)N[C@@H](CCCNC(=N)N)C(=O)N[C@@H](CCC(N)=O)C(=O)N(C)[C@@H](CCCNC(=N)N)C(=O)N[C@@H](Cc4ccc(O)cc4)C(N)=O)[C@@H](C)O)C(C)C)c3c(=O)[nH]2)CC1 [Example 9] |  | > 9 µM | > 9 µM | > 9 µM |  | 
6 | CC[C@H](C)[C@H](NC(C)=O)C(=O)N[C@@H](CCCCN)C(=O)N1CCN(c2ncc3c(ncn3CC(=O)N[C@@H](CCCNC(=N)N)C(=O)N[C@@H](Cc3c[nH]cn3)C(=O)N[C@@H](Cc3ccc(O)cc3)C(=O)N[C@@H](CC(C)C)C(=O)N[C@@H](CC(N)=O)C(=O)N[C@@H](Cc3c[nH]c4ccccc34)C(=O)N[C@H](C(=O)N[C@H](C(=O)N[C@@H](CCCNC(=N)N)C(=O)N[C@@H](CCC(N)=O)C(=O)N(C)[C@@H](CCCNC(=N)N)C(=O)N[C@@H](Cc3ccc(O)cc3)C(N)=O)[C@@H](C)O)C(C)C)n2)CC1 [Example 10] |  | > 5 µM | > 5 µM | 1.1 µM | 48% | 
7 | CC[C@H](C)[C@H](NC(C)=O)C(=O)N[C@@H](CCCCN)C(=O)N1CCN(c2nc(N)c3c(ncn3CC(=O)N[C@@H](CCCNC(=N)N)C(=O)N[C@@H](Cc3c[nH]cn3)C(=O)N[C@@H](Cc3ccc(O)cc3)C(=O)N[C@@H](CC(C)C)C(=O)N[C@@H](CC(N)=O)C(=O)N[C@@H](Cc3c[nH]c4ccccc34)C(=O)N[C@H](C(=O)N[C@H](C(=O)N[C@@H](CCCNC(=N)N)C(=O)N[C@@H](CCC(N)=O)C(=O)N(C)[C@@H](CCCNC(=N)N)C(=O)N[C@@H](Cc3ccc(O)cc3)C(N)=O)[C@@H](C)O)C(C)C)n2)CC1 [Example 11] |  | > 5 µM | > 5 µM | 3.3 µM | 39% | 0.00018 µM
8 | CC[C@H](C)[C@H](NC(C)=O)C(=O)N[C@@H](CCCCN)C(=O)N1CC2CC1CC2c1ccc2ncn(CC(=O)N[C@@H](CCCNC(=N)N)C(=O)N[C@@H](Cc3c[nH]cn3)C(=O)N[C@@H](Cc3ccc(O)cc3)C(=O)N[C@@H](CC(C)C)C(=O)N[C@@H](CC(N)=O)C(=O)N[C@@H](Cc3c[nH]c4ccccc34)C(=O)N[C@H](C(=O)N[C@H](C(=O)N[C@@H](CCCNC(=N)N)C(=O)N[C@@H](CCC(N)=O)C(=O)N(C)[C@@H](CCCNC(=N)N)C(=O)N[C@@H](Cc3ccc(O)cc3)C(N)=O)[C@@H](C)O)C(C)C)c(=O)c2c1 (stereo partly shown) [Example 12] |  | > 5 µM | > 5 µM | 2.87 µM | 43% | 
9 | CC[C@H](C)[C@H](NC(C)=O)C(=O)N[C@@H](CCCCN)C(=O)N1CCN(c2ccc3ccn(CC(=O)N[C@@H](CCCNC(=N)N)C(=O)N[C@@H](Cc4c[nH]cn4)C(=O)N[C@@H](Cc4ccc(O)cc4)C(=O)N[C@@H](CC(C)C)C(=O)N[C@@H](CC(N)=O)C(=O)N[C@@H](Cc4c[nH]c5ccccc45)C(=O)N[C@H](C(=O)N[C@H](C(=O)N[C@@H](CCCNC(=N)N)C(=O)N[C@@H](CCC(N)=O)C(=O)N(C)[C@@H](CCCNC(=N)N)C(=O)N[C@@H](Cc4ccc(O)cc4)C(N)=O)[C@@H](C)O)C(C)C)c(=O)c3c2)CC1 [Example 13] |  | > 5 µM | > 5 µM | 2.34 µM | 49% | 0.00018 µM
